From US7585895B2, “Therapeutic substituted cyclopentanes” (Allergan, Inc., priority 2005, dated 2009) come the findings set out here.

One test deals with EP2 (Homo sapiens, UniProt P43116). The test is described as follows: Competition binding, [3H]PGE2, EP2 (Ki). On the set-up: expressed in transfected cells; membranes or whole cells. Conditions: HEK 293 cells stably expressing human EP2, [3H]PGE2. The protocol:
Competition binding experiments were performed in a medium containing Hank's balanced salt solution, Hepes 20 mM, pH 7.3, membranes (˜60 μg protein) or 2×10^5 cells from HEK 293 cells stably expressing human EP2 receptors, [^3H]PGE2 (10 nM) and various concentrations of test compounds in a total volume of 300 μl. Reaction mixtures were incubated at 23° C. for 60 min, and were filtered over Whatman GF/B filters under vacuum. Filters were washed three times with 5 ml ice-cold buffer containing 50 mM Tris/HCl (pH 7.3). Non-specific binding was estimated in the presence of excess unlabeled PGE2 (10 μM). Binding data fitted to the binding model for a single class of binding sites, using nonlinear regression analysis. IC50 values thus obtained were converted to Ki using the equation of Ki=(IC50/(1+[L]/KD) where [L] represents PGE2 concentration (10 nM) and KD the dissociation constant for [^3H]PGE2 at human EP2 receptors (40 nM).
HEK-293 cells stably expressing the human or feline FP receptor, or EP1, EP2, or EP4 receptors were washed with TME buffer, scraped from the bottom of the flasks, and homogenized for 30 sec using a Brinkman PT 10/35 polytron. TME buffer was added to achieve a final 40 ml volume in the centrifuge tubes (the composition of TME is 100 mM TRIS base, 20 mM MgCl2, […]; 10N HCl is added to achieve a pH of 7.4).
The cell homogenate was centrifuged at 19000 r.p.m. for 20 min at 4° C using a Beckman Ti-60 rotor. The resultant pellet was resuspended in TME buffer to give a final 1 mg/ml protein concentration, as determined by Biorad assay. Radioligand binding competition assays vs. [^3H-]17-phenyl PGF2α. (5 nM) were performed in a 100 μl volume for 60 min. Binding reactions were started by adding plasma membrane fraction. The reaction was terminated by the addition of 4 ml ice-cold TRIS-HCl buffer and rapid filtration through glass fiber GF/B filters using a Brandel cell harvester. The filters were washed 3 times with ice-cold buffer and oven dried for one hour.
[^3H-] PGE2 (specific activity 180 Ci mmol) was used as the radioligand for EP receptors. [^3H] 17-phenyl PGF2α, was employed for FP receptor binding studies. Binding studies employing EP1, EP2, EP4 and FP receptors were performed in duplicate in at least three separate experiments. A 200 μl assay volume was used. Incubations were for 60 min at 25° C. and were terminated by the addition of 4 ml of ice-cold 50 mM TRIS-HCl, followed by rapid filtration through Whatman GF/B filters and three additional 4 ml washes in a cell harvester (Brandel). Competition studies were performed using a final concentration of 5 nM [^3H]-PGE2, or 5 nM [^3H] 17-phenyl PGF2αand non-specific binding determined with 10^−5M of unlabeled PGE2, or 17-phenyl PGF2α, according to receptor subtype studied.

In another test the target is T1, hEP1 (Homo sapiens, UniProt P34995).
T1 construct: expressed in transfected cells
T1 sequence (P34995 1-402): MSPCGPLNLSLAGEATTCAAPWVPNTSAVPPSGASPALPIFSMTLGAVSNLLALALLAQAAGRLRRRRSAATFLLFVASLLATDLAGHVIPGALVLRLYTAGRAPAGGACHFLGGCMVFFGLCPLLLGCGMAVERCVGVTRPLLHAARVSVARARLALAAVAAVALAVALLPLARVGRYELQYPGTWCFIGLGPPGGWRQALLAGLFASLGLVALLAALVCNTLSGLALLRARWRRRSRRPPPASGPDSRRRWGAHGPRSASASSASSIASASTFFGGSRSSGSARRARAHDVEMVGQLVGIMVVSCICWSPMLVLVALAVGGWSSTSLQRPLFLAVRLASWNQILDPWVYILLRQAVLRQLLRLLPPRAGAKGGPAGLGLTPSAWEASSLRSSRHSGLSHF
Description: FLIPR calcium signal, EP1. Format: cell-based. Conditions: HEK-293(EBNA). The protocol: (§1) HEK-293(EBNA) cells, stably expressing one type or subtype of recombinant human prostaglandin receptors (prostaglandin receptors expressed: hDP/Gqs5; hEP1; hEP2/Gqs5; hEP3A/Gqi5; hEP4/Gqs5; hFP; hIP; hTP), were cultured in 100 mm culture dishes in high-glucose DMEM medium containing 10% fetal bovine serum, 2 mM 1-glutamine, 250 μg/ml geneticin (G418) and 200 μg/ml hygromycin B as selection markers, and 100 units/ml penicillin G, 100 μg/ml streptomycin and 0.25 μg/ml amphotericin B.
(§2) Cells were seeded at a density of 5×10^4 cells per well in Biocoat® Poly-D-lysine-coated black-wall, clear-bottom 96-well plates (Becton-Dickinson) and allowed to attach overnight in an incubator at 37° C. Cells were then washed two times with HBSS-HEPES buffer (Hanks Balanced Salt Solution without bicarbonate and phenol red, 20 mM HEPES, pH 7.4) using a Denley Cellwash plate washer (Labsystems). After 45 minutes of dye-loading in the dark, using the calcium-sensitive dye Fluo-4 AM at a final concentration of 2 μM, plates were washed four times with HBSS-HEPES buffer to remove excess dye leaving 100 μl in each well. Plates were re-equilibrated to 37° C. for a few minutes.
(§3) Cells were excited with an Argon laser at 488 nm, and emission was measured through a 510-570 nm bandwidth emission filter (FLIPR™, Molecular Devices, Sunnyvale, Calif.). Drug solution was added in a 50 μl volume to each well to give the desired final concentration. The peak increase in fluorescence intensity was recorded for each well. On each plate, four wells each served as negative (HBSS-HEPES buffer) and positive controls (standard agonists: BW245C (hDP); PGE2 (HEP1; hEP2/Gqs5; hEP3A/Gqi5; hEP4/Gqs5); PGF2α (hFP); carbacyclin (hIP); U-46619 (hTP), depending on receptor). The peak fluorescence change in each drug-containing well was then expressed relative to the controls.
(§4) Compounds were tested in a high-throughput (HTS) or concentration-response (CoRe) format. In the HTS format, forty-four compounds per plate were examined in duplicates at a concentration of 10^−5 M. To generate concentration-response curves, four compounds per plate were tested in duplicates in a concentration range between 10^−5 and 10^−11 M. The duplicate values were averaged. In either, HTS or CoRe format each compound was tested on at least 3 separate plates using cells from different passages to give an n≧3.

A further test addresses T2, hEP2/Gqs5 (Homo sapiens, UniProt P43116).
T2 construct: expressed in transfected cells
The test is described as follows: FLIPR calcium signal, EP2. Conditions: HEK-293(EBNA), value outside parentheses, read-out: Ca2+ Signal-EC50 (nM) EP2. It counts as cell-based. On the procedure: as §1, §2, §3, §4

For a further test, the target named is T3, hEP4/Gqs5 (Homo sapiens, UniProt P35408).
T3 construct: expressed in transfected cells
T3 sequence (P35408 whole entry): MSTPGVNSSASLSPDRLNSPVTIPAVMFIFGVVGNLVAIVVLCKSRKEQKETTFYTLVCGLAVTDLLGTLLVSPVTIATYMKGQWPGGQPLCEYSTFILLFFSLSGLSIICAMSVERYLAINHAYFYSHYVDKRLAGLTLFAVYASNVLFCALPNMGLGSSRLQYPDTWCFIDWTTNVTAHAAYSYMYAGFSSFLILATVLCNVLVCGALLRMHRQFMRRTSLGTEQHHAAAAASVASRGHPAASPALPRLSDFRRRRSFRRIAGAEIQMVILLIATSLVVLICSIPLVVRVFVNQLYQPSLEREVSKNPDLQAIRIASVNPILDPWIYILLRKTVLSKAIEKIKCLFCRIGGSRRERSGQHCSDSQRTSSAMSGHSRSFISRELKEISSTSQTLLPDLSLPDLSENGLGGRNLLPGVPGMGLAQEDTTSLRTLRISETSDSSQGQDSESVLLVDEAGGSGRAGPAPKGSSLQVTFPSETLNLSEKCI
Description: FLIPR calcium signal, EP4. Format: cell-based. Conditions: HEK-293(EBNA); for EC50: read-out: Ca2+ Signal-EC50 (nM) EP4. The protocol:
as §1, §2, §3, §4

T2 sequence (P43116 whole entry): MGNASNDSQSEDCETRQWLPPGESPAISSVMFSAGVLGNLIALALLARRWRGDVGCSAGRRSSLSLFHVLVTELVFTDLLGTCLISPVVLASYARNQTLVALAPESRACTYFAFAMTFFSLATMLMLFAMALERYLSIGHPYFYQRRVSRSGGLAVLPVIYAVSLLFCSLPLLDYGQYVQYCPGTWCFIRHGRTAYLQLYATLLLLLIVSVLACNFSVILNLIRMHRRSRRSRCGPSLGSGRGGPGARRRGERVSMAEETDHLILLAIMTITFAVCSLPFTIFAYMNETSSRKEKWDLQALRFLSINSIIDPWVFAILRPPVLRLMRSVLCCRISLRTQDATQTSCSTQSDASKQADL
EP2, sequence (P43116 whole entry): as above

On to `O=C(O)CCC/C=C\C[C@@H]1[C@@H](c2ccc(C(O)c3ccccc3)cc2)[C@H](O)C[C@H]1Cl` (stereo partly drawn) [Entry 28, (Z)-7-{(1R,2S,3R,5R)-5-Chloro-3-hydroxy-2-[4-(hydroxy-phenyl-methyl)-phenyl]-cyclopentyl}-hept-5-enoic acid], for which the inhibitory constant (Ki) at EP2 turned out to be 564 nM. Besides, on hEP1, the “Ca2+ Signal-EC50 (nM) EP1” value was “not active”. For the same molecule, the EC50 on hEP2/Gqs5 came out at 142 nM. Moreover, the “Ca2+ Signal-EC50 (nM) EP4” value on hEP4/Gqs5 is given as “not active”.

With `CCCCC(O)c1cccc([C@@H]2[C@@H](C/C=C\CCCC(=O)O)[C@H](Cl)C[C@H]2O)c1` (stereo partly drawn) [Entry 30, (Z)-7-{(1R,2S,3R,5R)-5-Chloro-3-hydroxy-2-[3-(1-hydroxy-pentyl)-phenyl]-cyclopentyl}-hept-5-enoic acid], the affinity on EP2 corresponds to a Ki of 1260 nM. At hEP1, the “Ca2+ Signal-EC50 (nM) EP1” value is recorded as “not active”. Moreover, the EC50 on hEP2/Gqs5 is 68 nM. Further, the “Ca2+ Signal-EC50 (nM) EP4” value at hEP4/Gqs5 is “not active”.

At EP2, `CCCCCC(O)c1ccc([C@@H]2[C@@H](C/C=C\CCCC(=O)O)[C@H](Cl)C[C@@H]2O)cc1` (stereo partly drawn) [Entry 34, (Z)-7-{(1R,2S,3S,5R)-5-Chloro-3-hydroxy-2-[4-(1-hydroxy-hexyl)-phenyl]-cyclopentyl}-hept-5-enoic acid] returned a Ki of 12 nM. The “Ca2+ Signal-EC50 (nM) EP1” value on hEP1 is given as “not active”. Further, the 50% effective concentration (EC50) on hEP2/Gqs5 turned out to be 16 nM. For the same molecule, on hEP4/Gqs5, the “Ca2+ Signal-EC50 (nM) EP4” value is recorded as “not active”.

With `CCCC1(C(O)c2cccc([C@@H]3[C@@H](Cc4cccc(CCC(=O)O)c4)[C@H](Cl)C[C@H]3O)c2)CCC1` (stereo partly drawn) [Entry 4, 3-[3-((1R,2S,3R,5R)-5-Chloro-3-hydroxy-2-{3-[hydroxy-(1-propyl-cyclobutyl)-methyl]-phenyl}-cyclopentylmethyl)-phenyl]-propionic acid], the Ki on EP2 was more than 10000 nM. The “Ca2+ Signal-EC50 (nM) EP1” value on hEP1 is “not active”. Moreover, the values for the EC50 on hEP2/Gqs5 and at hEP4/Gqs5 were 4110 nM and more than 10000 nM, respectively.

Molecule `O=C(O)CCC/C=C\C[C@@H]1[C@@H](c2ccc(C(O)Cc3ccccc3)cc2)[C@H](O)C[C@H]1Cl` (mixture of isomers) [Entry 21, (Z)-7-{(1R,2S,3R,5R)-5-Chloro-3-hydroxy-2-[4-(1-hydroxy-2-phenyl-ethyl)-phenyl]-cyclopentyl}-hept-5-enoic acid] gave a Ki at EP2 of 77 nM. Moreover, at hEP1, the “Ca2+ Signal-EC50 (nM) EP1” value is on record as “not active”. Further, the figures for the 50% effective concentration (EC50) on hEP2/Gqs5 and at hEP4/Gqs5 were 9 nM and more than 10000 nM, respectively.

For the molecule `CCCCCCC(O)c1ccc([C@@H]2[C@@H](C/C=C\CCCC(=O)O)[C@H](Cl)C[C@H]2O)cc1` (stereo partly drawn) [Entry 25, (Z)-7-{(1R,2S,3R,5R)-5-Chloro-3-hydroxy-2-[4-(1-hydroxy-heptyl)-phenyl]-cyclopentyl}-hept-5-enoic acid], at EP2, the inhibitory constant (Ki) stood at 278 nM. Also, the “Ca2+ Signal-EC50 (nM) EP1” value on hEP1 is listed as “not active”. The EC50 on hEP2/Gqs5 worked out at 58 nM. Besides, at hEP4/Gqs5, the “Ca2+ Signal-EC50 (nM) EP4” value is listed as “not active”.

`O=C(O)CCCCCC[C@@H]1[C@@H](c2ccc(C(O)CC3CCCCC3)cc2)[C@H](O)C[C@H]1Cl` (stereo partly drawn) [Entry 18, 7-{(1R,2S,3R,5R)-5-Chloro-2-[4-(2-cyclohexyl-1-hydroxy-ethyl)-phenyl]-3-hydroxy-cyclopentyl}-heptanoic acid] had an inhibitory constant (Ki) on EP2 of 2290 nM. The “Ca2+ Signal-EC50 (nM) EP1” value on hEP1 is given as “not active”. Further, the EC50 at hEP2/Gqs5 was 2250 nM; on hEP4/Gqs5, more than 10000 nM.

`O=C(O)CCC/C=C\C[C@@H]1[C@@H](c2ccc(C(O)CCC3CCCCC3)cc2)[C@H](O)C[C@H]1Cl` (stereo partly drawn) [Entry 15, (Z)-7-{(1R,2S,3R,5R)-5-Chloro-2-[4-(3-cyclohexyl-1-hydroxy-propyl)-phenyl]-3-hydroxy-cyclopentyl}-hept-5-enoic acid] displayed a Ki on EP2 of 260 nM. In addition, the “Ca2+ Signal-EC50 (nM) EP1” value on hEP1 was “not active”. The EC50 at hEP2/Gqs5 is 495 nM. The “Ca2+ Signal-EC50 (nM) EP4” value on hEP4/Gqs5 is listed as “not active”.

`CCCCCC(O)c1ccc([C@@H]2[C@@H](C/C=C\CCCC(=O)O)[C@H](Cl)C[C@H]2O)cc1` (single isomer, unassigned) [Entry 12] gave a Ki on EP2 of 209 nM. Moreover, the “Ca2+ Signal-EC50 (nM) EP1” value on hEP1 is reported as “not active”. Further, the concentration for a half-maximal effect (EC50) is 36 nM on hEP2/Gqs5 and more than 10000 nM on hEP4/Gqs5.

`CCCCCC(O)c1ccc([C@@H]2[C@@H](CCCCCCC(=O)O)[C@H](Cl)C[C@H]2O)cc1` (stereo partly drawn) [Entry 14, 7-{(1R,2S,3R,5R)-5-Chloro-3-hydroxy-2-[4-(1-hydroxy-hexyl)-phenyl]-cyclopentyl}-heptanoic acid] showed a Ki at EP2 of 287 nM. Also, the “Ca2+ Signal-EC50 (nM) EP1” value at hEP1 is given as “not active”. The half-maximal effective concentration (EC50) at hEP2/Gqs5 was 28 nM; at hEP4/Gqs5, more than 10000 nM.

Molecule `CCCCCC(O)C(C)(C)c1ccc([C@@H]2[C@@H](C/C=C\CCCC(=O)O)[C@H](Cl)C[C@H]2O)cc1` (stereo partly drawn) [Entry 31, (Z)-7-{(1R,2S,3R,5R)-5-Chloro-3-hydroxy-2-[4-(2-hydroxy-1,1-dimethyl-heptyl)-phenyl]-cyclopentyl}-hept-5-enoic acid] yielded a Ki on EP2 of 182 nM. Further, the “Ca2+ Signal-EC50 (nM) EP1” value at hEP1 was “not active”. In addition, the 50% effective concentration (EC50) on hEP2/Gqs5 is 544 nM. The “Ca2+ Signal-EC50 (nM) EP4” value on hEP4/Gqs5 is listed as “not active”.

`CCCCCC(O)c1ccc([C@@H]2[C@@H](C/C=C\CCCC(=O)O)[C@H](F)C[C@H]2O)cc1` (mixture of isomers) [Entry 8, (Z)-7-{(1R,2S,3R,5R)-5-Fluoro-3-hydroxy-2-[4-(1-hydroxy-hexyl)-phenyl]-cyclopentyl}-hept-5-enoic acid] returned a Ki on EP2 of 804 nM. In addition, the “Ca2+ Signal-EC50 (nM) EP1” value at hEP1 is given as “not active”. Moreover, the EC50 at hEP2/Gqs5 came to 53 nM. In addition, the “Ca2+ Signal-EC50 (nM) EP4” value on hEP4/Gqs5 was “not active”.
